# Reference: article PMC5471438, “Linaclotide activates guanylate cyclase‐C/cGMP/protein kinase‐II‐dependent trafficking of CFTR in the intestine” (Physiological Reports, 2017)
# Entries after “also recorded” stand apart in the source; their conditions may differ. Where no end group is shown, it is not given here.
# How the values were obtained:
# [1] = system: PKGII-deficient mice intestinal tissue; set-up: method as in Vaandrager et al. 2000; details: normal and PKGII knockout mice; ref Vaandrager et al. 2000; cited from earlier work
# rat colonic mucosa = details: apical and basolateral membrane, ref Silos‐Santiago et al. 2013, Tchernychev et al. 2015; cited from earlier work
# From the text: (§1) While the increase in intracellular cGMP following ligand activation of GC‐C is well established, the efflux of cGMP from enterocytes is not well studied.
# Caco‐2 cell line = details: human colonic Caco‐2 cell line; ref Castro et al. 2013; Silos‐Santiago et al. 2013; cited from earlier work
# From the text: as §1
# mouse colonic mucosa = details: apical and basolateral membrane, ref Silos‐Santiago et al. 2013, Tchernychev et al. 2015; cited from earlier work
# From the text: as §1
# T84 cells = details: ref Forte et al. 1993; cited from earlier work
# [2] = system: rat proximal colonic mucosa; assay: Transepithelial short circuit current (Isc) across rat proximal colonic mucosa, Ussing chamber; set-up: species or system rat (Sprague–Dawley)
# human intestine = system: human intestine; set-up: method as in Kuhn et al. 1994; details: segments of human intestine including ascending colon; ref Kuhn et al. 1994; cited from earlier work
# [3] = system: rat proximal colonic mucosa; set-up: method as in 2 sources, one per row (each row's own in cited_ref): ref Tchernychev et al. 2015 ||| ref Vaandrager et al. 1997; details: rat proximal colon; ref Vaandrager et al. 1997; cited from earlier work
# CFTR [4] = assay: Surface biotinylation of CFTR in T84 cells; type: cell-based, human; details: linaclotide 3.27 μmol/L 30 min
# CFTR [5] = assay: Surface biotinylation of CFTR in C2BBe cells; type: cell-based, human; details: linaclotide 3.27 μmol/L 30 min
# CFTR [6] = assay: Surface biotinylation of CFTR in cGKII knockdown C2BBe cells; type: cell-based, human; details: dibutyryl cAMP 1 mmol/L, 30 min, vs PBS
# cGKII = cGKII knockdown in C2BBe cells, Western blot; type: cell-based, human; details: lentiviral cGKII shRNA
# human colonic mucosa = assay: Transepithelial short circuit current (Isc) across human ascending colonic mucosa, Ussing chamber; details: human ascending colon, bumetanide 100 μmol/L basolateral, linaclotide 30 nmol/L and 1000 nmol/L; mean ± SEM (n = 6)
# [7] = H8 70 μmol/L pretreatment 30 min
# [8] = H7 50 μmol/L pretreatment 30 min
molecule,measurement,setting,value
Nc1cc(-c2ccncc2)c[nH]c1=O [amrinone],transepithelial ion current by PDE3 inhibitor,[1],induced transepithelial ion current in tissues from normal and PKGII knockout mice
"uroguanylin (NDDCELCVNVACTGCL; ends and bridges not checked; cysteine pairing not given here; UniProt Q16661 97-112, looked up) [natural hormone, GC‐C agonist]",cGMP efflux,rat colonic mucosa,induce cGMP efflux
same,cGMP efflux,Caco‐2 cell line,induce cGMP efflux
same,cGMP efflux,mouse colonic mucosa,induce cGMP efflux
same,cGMP production via GC‐C activation,T84 cells,increase production of cGMP
O=C(CNc1ccc2ccccc2c1)N/N=C/c1cc(Br)c(O)c(Br)c1O [GlyH‐101],inhibition of linaclotide‐evoked Isc by CFTR inhibitor,"[2]; GlyH‐101 0.1 mmol/L apical, 20 min after linaclotide 6 nmol/L or 100 nmol/L, mean ± SEM (n = 4)",significantly attenuated the linaclotide‐evoked Isc
same,"inhibition of linaclotide‐evoked Isc by CFTR inhibitor, low linaclotide","[2]; GlyH‐101 0.1 mmol/L, linaclotide 6 nmol/L",more profound when tissues were stimulated with lower concentrations of linaclotide; also recorded: significantly inhibited Isc induced by low concentration of linaclotide
same,"inhibition of linaclotide‐evoked Isc by CFTR inhibitor, high linaclotide","[2]; GlyH‐101 0.1 mmol/L, linaclotide 100 nmol/L",less profound
"guanylin (PGTCEICAYAACTGC; ends and bridges not checked; cysteine pairing not given here; UniProt Q02747 101-115, looked up) [natural hormone, GC‐C agonist]",electrogenic Cl− secretion,human intestine,increase electrogenic Cl^− secretion
same,cGMP production via GC‐C activation,T84 cells,increase production of cGMP
CNCCNS(=O)(=O)c1cccc2cnccc12.Cl.Cl [H8],inhibition of GC‐C‐mediated transepithelial ion current by PKGII antagonists,[3],significant but incomplete inhibition
same,effect of PKG inhibitor on linaclotide‐induced apical CFTR traffic,CFTR [4]; [7],reduced linaclotide‐induced apical CFTR traffic more potently compared to the PKA inhibitor H7; also recorded: reduce linaclotide‐induced apical trafficking of CFTR
same,effect of PKGII inhibitor on NKH477‐evoked Isc,"[2]; rat proximal colon, H8 100 μmol/L 30 min preincubation, NKH477 20 μmol/L basolateral, mean ± SEM (n = 5)",no effect on NKH477‐evoked Isc; also recorded: no effect on PKA‐mediated short circuit current induced by NKH477
same,effect of PKGII inhibitor on linaclotide‐induced Isc,"[2]; rat proximal colon, H8 100 μmol/L 30 min preincubation, linaclotide 100 nmol/L apical, mean ± SEM (n = 5)","significantly decreased linaclotide‐induced Isc compared to vehicle‐treated tissues; also recorded: significant, it was not complete"
same,effect of PKG inhibitor on linaclotide‐induced apical CFTR traffic,CFTR [5]; [7],reduced linaclotide‐induced apical CFTR traffic more potently compared to the PKA inhibitor H7; also recorded: reduce linaclotide‐induced apical trafficking of CFTR
C=C[C@@]1(C)CC(=O)[C@]2(O)[C@@]3(C)[C@@H](O)CCC(C)(C)[C@@H]3[C@H](OC(=O)CCN(C)C)[C@H](OC(C)=O)[C@@]2(C)O1.Cl [NKH477],NKH477-induced transepithelial ion current,"[2]; rat proximal colon, NKH477 20 μmol/L basolateral, mean ± SEM (n = 5)",robust transepithelial ion current
CCCC(=O)Nc1ncnc2c1ncn2[C@@H]1O[C@@H]2COP(=O)(O)O[C@H]2[C@H]1OC(=O)CCC [Dibutyryl cAMP],surface CFTR in cGKII‐KD cells after cAMP analog,CFTR [6],increased apical surface CFTR
same,surface CFTR in cGKII‐KD cells after cAMP analog,CFTR [6]; listed as dibuturyl cAMP,able to recruit CFTR to the membrane
"cGKII shRNA: cGKII‐targeting shRNA (5′‐GGGCCTTAATAACCATTTAGT‐3′), lentiviral pLKO.1 (expressed from pLKO.1 lentiviral vector)",downregulation of cGKII,cGKII,approximately 50 ± 3%
CC1CNCCN1S(=O)(=O)c1cccc2cnccc12 (centres unmarked) [H7],effect of PKA inhibitor on linaclotide‐induced apical CFTR traffic,CFTR [4]; [8],reduced but did not abrogate linaclotide‐induced apical CFTR traffic; also recorded: reduce linaclotide‐induced apical trafficking of CFTR; also recorded: partially abrogated linaclotide‐stimulated traffic
same,effect of PKA inhibitor on linaclotide‐induced apical CFTR traffic,CFTR [5]; [8],reduced but did not abrogate linaclotide‐induced apical CFTR traffic; also recorded: reduce linaclotide‐induced apical trafficking of CFTR; also recorded: partially abrogated linaclotide‐stimulated traffic
Nc1nc2c(nc(Sc3ccc(Cl)cc3)n2[C@@H]2O[C@@H]3CO[P@@](=O)(S)O[C@H]3[C@H]2O)c(=O)[nH]1 [Rp‐8‐pCPT‐cGMPS],inhibition of GC‐C‐mediated transepithelial ion current by PKGII antagonists,[3],significant but incomplete inhibition
CCCCNc1cc(C(=O)O)cc(S(N)(=O)=O)c1Oc1ccccc1 [bumetanide],effect of NKCC1 inhibitor on linaclotide‐evoked Isc,human colonic mucosa,significantly attenuated linaclotide‐evoked Isc; also recorded: inhibits GC‐C mediated short circuit current across human colonic mucosa
